Source: patent US4028383A, “Indolopyrones having antiallergic activity” (Warner-Lambert Company, priority 1975, dated 1977)

Test system: PCA reaction
Test: passive cutaneous anaphylaxis (PCA) procedure
Assay type: in vivo, male rats
Details: for % Inhibition: rats, 30 minutes prior to challenge
Method: In this procedure, male rats, between 180 and 200 grams in weight are passively sensitized forty-eight or seventy-two hours prior to test with rat sera containing reagintype antibodies. These sera are injected intradermally in four separate sites, two on each side of the ventral midline. Dose volume is 0.1 ml.
On the test-day animals receive drug or vehicle (placebo) 30 minutes prior to challenge. Test compounds are given i.p. on an mg/kg basis; usual volume is 0.5 ml/100 g body weight. Controls receive the vehicle, on the same weight-volume basis.
The challenging dose of 1.0 ml of Antigen-Evans Blue is administered i.v. This is prepared from either Ovalbumin or dinitrophenylated bovine gamma globulin, 10 mg, together with 5 ml of 0.5% Evans Blue, U.S.P., and 5 ml of normal saline. At 30 minutes after challenge each rat is sacrificed. A section of skin that includes the four sensitizing injection sites is removed.
Reaction is indicated by a blue coloration of the site and scored on the basis of color intensity. Size of the site is also reported.
Data is reported as the arithmetic mean score of a specific site for that group of five animals; the size of the spot is also reported as the mean for the group.
The relation between dilution of antibody and mean spot diameters approximates a straight line which is constructed by the method of least squares for the control animals. The maximum antibody concentration is set as "100% reactivity", with the extrapolated "zero" antibody concentration being 0%. Using this line the diameter at the highest antibody concentrations in any treated group is expressed as a percent of the control, i.e. "% inhibition." The treatment is judged "active" if the inhibition is 50% or greater.

Cn1c2ccccc2c2oc(C(=O)O)cc(=O)c21 [Example 5, 4,5-dihydro-5-methyl-4-oxopyrano[3,2-b]indole-2-carboxylic acid]
% Inhibition (1.0 mg/kg I.P.): 30% | % Inhibition (5.0 mg/kg I.P.): 100% | % Inhibition (10.0 mg/kg I.P.): 100% | % Inhibition (25.0 mg/kg I.P.): 100% | antiallergic activity in passive cutaneous anaphylaxis (male rats, i.p. 30 minutes prior to challenge): highly effective as an antiallergic
